In PMC12384620, “Hit-to-Lead Studies of Pyrazinylpiperazines against Visceral Leishmaniasis: Pharmacokinetic Profile and In Vivo Efficacy of Potent Compounds against Leishmania infantum” (ACS Pharmacology & Translational Science, 2025):

Key:
[1] = PAMPA gastrointestinal tract permeability; format: in vitro ADME; conditions: for Papp at 8 h, 0.5 mM: PAMPA-GI, read-out: GI Pe
Description: A 10 mM solution of each compound in DMSO was prepared and subsequently homogenized in a 5 mL flask with 4.75 mL PBS (pH 6.6) (10 mM). […] 180 μL of a PBS (pH 7.4)/DMSO (95:5) solution were then added to the wells of a 96-well receiver plate, and 5 μL of a L-α-phosphatidylcholine solution (20 mg/mL in dodecane) to the wells of a 96-well donor plate. After 5 min, 180 μL of the solutions containing each compound were added to the wells of the donor plate, in triplicate, and the donor plate was carefully placed over the receiver plate in a “sandwich-like” system, which was left stirring (50 rpm) for 8 h at rt in a sealed vessel containing 10 mL PBS (pH 7.4). Afterward, the donor plate was removed, and the content of the receiver plate was transferred to a UV reading plate, which was read using a microplate reader (SpectraMax 5 – Molecular Devices). A reference sample for the internal correction of the microplate reader was prepared using 180 μL of the PBS (pH 7.4)/DMSO (95:5) solution (adapted from refs and ). The optical density values obtained from the content of the receiver plate were compared with the ones obtained from readings performed with the initial solutions containing each compound, before their addition to the donor plate. […] The optical density values from the receptor plate were compared to those from experimental controls to determine the F a value for each compound, using Microsoft Excel.

L. braziliensis Hsp83 = assay: Hsp83 interaction by differential scanning fluorimetry; format: binding, Leishmania braziliensis
Description: (§1) The assays were performed using an Applied Biosystems 7500 Fast RT-PCR system (Applied Biosystems, Foster City, CA, USA), in triplicate, with 96-well PCR plates (BioRad, Hercules, CA, USA) sealed with transparent capping strips (BioRad, Hercules, CA, USA). The plates were centrifugated for 2 min at 2000 rpm at 25 °C. The temperature was then ramped up from 25 to 85 °C, increasing 1 °C per minute, while fluorescence signals were monitored using SYPRO Orange dye, with an excitation wavelength of 492 nm and an emission wavelength of 610 nm.
(§2) The DSF conditions used in this study have been previously described. , Briefly, each well contained 10 μM L. braziliensis Hsp90 or 5 μM L. braziliensis SOD, 1 μL of 5X SYPRO Orange, buffer A (50 mM PBS, 100 mM NaCl, pH 7.0 for L. braziliensis SOD or 50 mM Tris-HCl, 100 mM KCl, pH 8.0 for L. braziliensis Hsp90), and either 1 μL DMSO (5% v/v, negative control) or 1 – 6 (diluted in DMSO). […] Raw fluorescence data was collected using the Applied Biosystems 7500 Fast Software v2.0 and then exported to NAMI for Tm calculation via the first-derivative method. Differences in Tm values (ΔTm) were considered statistically significant when p < 0.05, as determined by the Kruskal–Wallis test followed by Dunn’s post-test for multiple comparisons, performed using GraphPad Prism 10.0 (GraphPad Software, San Diego, CA, USA, www.graphpad.com).

[2] = PAMPA blood-brain barrier permeability; format: in vitro ADME; conditions: PAMPA-BBB, pH 7.4; read-out: BBB Pe
Description: One mg of each compound was solubilized in ethanol (1 mL) in a 5 mL flask, and an additional 500 μL ethanol and 3.5 mL PBS buffer (pH 7.4) were added to this solution. […] 180 μL of a PBS (pH 7.4)/ethanol (70:30) solution were then added to the wells of a 96-well receiver plate, and 5 μL of a porcine brain lipid solution (20 mg/mL in dodecane) to the wells of a 96-well donor plate. […] Afterward, the donor plate was removed, and the content of the receiver plate was transferred to a UV reading plate, which was read using a microplate reader (SpectraMax 5 – Molecular Devices). A reference sample for the internal correction of the microplate reader was prepared using 180 μL of the PBS (pH 7.4)/ethanol (70:30) solution (adapted from ref ). The optical density values obtained from the content of the receiver plate were compared with the ones obtained from readings performed with the initial solutions containing each compound, before their addition to the donor plate. […] The optical density values for the experimental controls were used to determine the equation of the linear regression (optical density vs P e ), which allowed the determination of the P e value of each compound from the optical density values obtained from the receiver plate, using an in-house Microsoft Excel spreadsheet.

[3] = Metabolic stability in mouse liver microsomes; format: in vitro ADME; conditions: pH 7.4, MLM, with NADPH cofactor; for microsomal CLint at 5 μM: read-out: Clint, intrinsic clearance; for half-life at 5 μM: read-out: t1/2, microsomal half-life
Description: To a microcentrifuge tube was added 1 mg/mL Mouse Liver Microsome (MLM), a NADPH generating system consisting of 1 mM NADP+, 1.5 mM MgCl2, 3.5 mM glucose-6-phosphate and 0.5 U/mL glucose-6-phosphate dehydrogenase, and phosphate buffer (pH 7.4) in a sufficient amount for a total volume of […]. After a 15 min preincubation at 37 °C in a water bath, the enzymatic reactions were started by adding 2 μL of a […] stock solution of each compound to be assessed, reaching a final concentration of 5 μM in the tested compound. , The samples were further incubated at 37 °C under stirring (30 rpm) for predetermined periods (0, 15, 30, 45, and 60 min), and 500 μL chilled MeOH and 500 μL chilled acetonitrile were added before the samples were homogenized and left standing in an ice bath to accelerate protein precipitation. The resulting mixture was centrifugated at 13000 rpm for 15 min at 4 °C, the organic layer was extracted and 2 μL internal standard (clonazepam 5 μM) was added. Finally, the samples were filtered through a PVDF filter (Millex 0.22 μm x 13 mm) and analyzed by HPLC-PDA. ,

L. braziliensis SOD = assay: SOD interaction by differential scanning fluorimetry; format: binding, Leishmania braziliensis
Description: as §1, §2

Row | SMILES | Fa, fraction absorbed (GI) [1] | Papp at 8 h, 0.5 mM [1] | interaction with L. braziliensis Hsp83 (DSF titration curves) (L. braziliensis Hsp83; 100 μM to 12.5 μM) | Papp at 0.2 mg/mL [2] | microsomal CLint at 5 μM [3] | half-life at 5 μM [3] | interaction with L. braziliensis SOD (DSF titration curves) (L. braziliensis SOD; 100 μM to 12.5 μM) | effect on Tm of L. braziliensis Hsp83 (DSF) (L. braziliensis Hsp83; 100 μM) | effect on Tm of L. braziliensis SOD (DSF) (L. braziliensis SOD; 100 μM)
1 | O=C(c1ccc(O)c(Cl)c1)N1CCN(c2cnccn2)CC1 [Compound 1, (3-Chloro-4-hydroxyphenyl)(4-(pyrazin-2-yl)piperazin-1-yl)methanone] | 99.26% | 12.9 ×10⁻⁶ cm/s | neither of these compounds interacts | 0.52 ×10⁻⁶ cm/s | 1.23 µL/min/mg | 2.36 h | neither of these compounds interacts |  | 
2 | O=C(c1ccc(O)cc1)N1CCN(c2cnccn2)CC1 [Compound 2, (4-Hydroxyphenyl)(4-(pyrazin-2-yl)piperazin-1-yl)methanone] | 62.71% | 2.59 ×10⁻⁶ cm/s |  | 0.55 ×10⁻⁶ cm/s | 0.55 µL/min/mg | 5.25 h |  | failed to exert statistically significant effects | failed to exert statistically significant effects
